Measured values from patent US9796742B2, “Kinase inhibitors” (Respivert Limited, priority 2012, dated 2017).
Read-outs that look alike come from different tables or passages of the source.

Assays:
d-U937 cells = assay: LPS-induced TNFα/IL-8 release in d-U937 cells; type: cell-based; details: Homo sapiens, dU937, LPS-stimulated d-U937 cells
Procedure: U937 cells, a human monocytic cell line, are differentiated to macrophage-type cells by incubation with phorbol myristate acetate (PMA; 100 ng/mL) for 48 to 72 hr. Cells are pre-incubated with final concentrations of test compound for 2 hr and are then stimulated with 0.1 μg/mL of LPS (from E. Coli: O111:B4, Sigma) for 4 hr. The supernatant is collected for determination of TNFα and IL-8 concentrations by sandwich ELISA (Duo-set, R&D systems). The inhibition of TNFα production is calculated as a percentage of that achieved by 10 μg/mL of BIRB796 at each concentration of test compound by comparison against vehicle control. The relative 50% effective concentration (REC50) is determined from the resultant concentration-response curve. The inhibition of IL-8 production is calculated at each concentration of test compound by comparison with vehicle control. The 50% inhibitory concentration (IC50) is determined from the resultant concentration-response curve.

GSK3α = GSK3α (Homo sapiens (Human), UniProt P49840); assay: GSK 3α enzyme inhibition (FRET, Z-LYTE; Method 2); type: biochemical
GSK3α, sequence (P49840 whole entry): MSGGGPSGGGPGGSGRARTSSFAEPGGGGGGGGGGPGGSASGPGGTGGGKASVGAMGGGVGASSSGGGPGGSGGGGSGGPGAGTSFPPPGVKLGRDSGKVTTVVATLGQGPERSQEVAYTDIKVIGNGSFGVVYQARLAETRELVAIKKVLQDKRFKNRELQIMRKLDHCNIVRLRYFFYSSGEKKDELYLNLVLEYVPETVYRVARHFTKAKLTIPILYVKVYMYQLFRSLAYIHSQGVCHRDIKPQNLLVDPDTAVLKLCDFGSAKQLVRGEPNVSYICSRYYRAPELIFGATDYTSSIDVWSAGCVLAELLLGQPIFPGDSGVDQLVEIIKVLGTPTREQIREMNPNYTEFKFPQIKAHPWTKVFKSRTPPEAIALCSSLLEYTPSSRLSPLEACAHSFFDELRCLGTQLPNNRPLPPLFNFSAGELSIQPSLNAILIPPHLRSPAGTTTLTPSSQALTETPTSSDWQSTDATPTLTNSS
Procedure: (§1) The enzyme inhibitory activities of compounds disclosed herein are determined by FRET using synthetic peptides labelled with both donor and acceptor fluorophores (Z-LYTE, Invitrogen Ltd., Paisley, UK).
The inhibitory activities of compounds of the invention against the GSK 3α enzyme isoform (Invitrogen), are evaluated by determining the level of activation/phosphorylation of the target peptide. The GSK3-α protein (500 ng/mL, 2.5 μL) is mixed with the test compound (2.5 μL at either 4 μg/mL, 0.4 μg/mL, 0.04 μg/mL, or 0.004 μg/mL) for 2 hr at RT. The FRET peptide (8 μM, 2.5 μL), which is a phosphorylation target for GSK3α, and ATP (40 μM, 2.5 μL) are then added to the enzyme/compound mixture and the resulting mixture incubated for 1 hr. Development reagent (protease, 5 μL) is added for 1 hr prior to detection in a fluorescence microplate reader (Varioskan® Flash, ThermoFisher Scientific).
(§2) In all cases, the site-specific protease cleaves non-phosphorylated peptide only and eliminates the FRET signal. Phosphorylation levels of each reaction are calculated using the ratio of coumarin emission (donor) over fluorescein emission (acceptor), for which high ratios indicate high phosphorylation and low ratios indicate low phosphorylation levels. The percentage inhibition of each reaction is calculated relative to non-inhibited control and the 50% inhibitory concentration (IC50 value) is then calculated from the concentration-response curve.
This method follows the same steps as Method 1 above, but utilises a shorter period of mixing of the test compound (105 minutes instead of 2 hours) with the GSK3-α protein.

PBMCs [1] = assay: LPS-induced TNFα/IL-8 release in PBMC cells; type: cell-based; details: Homo sapiens, LPS-stimulated PBMCs
Procedure: Peripheral blood mononuclear cells (PBMCs) from healthy subjects are separated from whole blood using a density gradient (Lymphoprep, Axis-Shield Healthcare). The PBMCs are seeded in 96 well plates and treated with compounds at the desired concentration for 2 hours before addition of 1 ng/mL LPS (Escherichia Coli 0111:B4 from Sigma Aldrich) for 24 hours under normal tissue culture conditions (37° C., 5% CO2). The supernatant is harvested for determination of IL-8 and TNFα concentrations by sandwich ELISA (Duo-set, R&D systems) and read on the fluorescence microplate reader (Varioskan® Flash, ThermoFisher Scientific). The concentration at 50% inhibition (IC50) of IL-8 and TNFα production is calculated from the dose response curve.

PBMCs [2] = assay: IL-2 and IFN gamma release in CD3/CD28 stimulated PBMC cells; type: cell-based; details: Homo sapiens
Procedure: PBMCs from healthy subjects are separated from whole blood using a density gradient (Lymphoprep, Axis-Shield Healthcare). Cells are added to a 96 well plate pre-coated with a mixture of CD3/[…] monoclonal antibodies (0.3 μg/mL eBioscience and 3 μg/mL BD Pharmingen respectively). Compound at the desired concentration is then added to the wells and the plate left for 3 days under normal tissue culture conditions. Supernatants are harvested and IL-2 and IFN gamma release determined by Sandwich ELISA (Duo-set, R&D System). The IC50 is determined from the dose response curve.

Syk = Syk (Homo sapiens (Human), UniProt P43405); assay: Syk enzyme inhibition (FRET, Z-LYTE); type: biochemical
Procedure: as §1
(§3) The inhibitory activities of compounds of the invention against c-Src and Syk enzymes (Invitrogen), are evaluated in a similar fashion to that described hereinabove. The relevant enzyme (3000 ng/mL or 2000 ng/mL respectively, 2.5 μL) is incubated with the test compound (either 4 μg/mL, 0.4 μg/mL, 0.04 μg/mL, or 0.004 μg/mL, 2.5 μL each) for 2 hr at RT. The FRET peptides (8 μM. 2.5 μL), and appropriate ATP solutions (2.5 μL, 800 μM for c-Src, and 60 μM ATP for Syk) are then added to the enzymes/compound mixtures and incubated for 1 hr. Development reagent (protease, 5 μL) is added for 1 hr prior to detection in a fluorescence microplate reader (Varioskan® Flash, ThermoFisher Scientific).
as §2

c-Src = c-Src (Homo sapiens (Human), UniProt P12931); assay: c-Src enzyme inhibition (FRET, Z-LYTE); type: biochemical
c-Src, sequence (P12931 whole entry, looked up): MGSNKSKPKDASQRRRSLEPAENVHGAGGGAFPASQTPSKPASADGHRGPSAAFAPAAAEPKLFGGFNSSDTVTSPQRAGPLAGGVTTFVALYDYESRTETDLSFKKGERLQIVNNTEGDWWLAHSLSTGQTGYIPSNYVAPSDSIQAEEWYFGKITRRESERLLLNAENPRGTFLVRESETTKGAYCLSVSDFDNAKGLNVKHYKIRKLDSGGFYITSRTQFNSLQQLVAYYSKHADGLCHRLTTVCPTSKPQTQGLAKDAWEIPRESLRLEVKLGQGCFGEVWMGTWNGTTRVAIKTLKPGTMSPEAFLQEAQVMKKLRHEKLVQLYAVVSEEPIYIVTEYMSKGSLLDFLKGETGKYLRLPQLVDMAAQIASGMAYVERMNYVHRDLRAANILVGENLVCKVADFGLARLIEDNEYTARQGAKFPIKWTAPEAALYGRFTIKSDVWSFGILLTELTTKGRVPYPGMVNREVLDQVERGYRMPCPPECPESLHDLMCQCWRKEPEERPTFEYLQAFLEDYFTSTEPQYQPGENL
Procedure: as §1, §3, §2

p38 MAPKα = p38 MAPKα (Homo sapiens (Human), UniProt Q16539); assay: p38 MAPKα enzyme inhibition (FRET, Z-LYTE; Method 2); type: biochemical
p38 MAPKα, sequence (Q16539 whole entry): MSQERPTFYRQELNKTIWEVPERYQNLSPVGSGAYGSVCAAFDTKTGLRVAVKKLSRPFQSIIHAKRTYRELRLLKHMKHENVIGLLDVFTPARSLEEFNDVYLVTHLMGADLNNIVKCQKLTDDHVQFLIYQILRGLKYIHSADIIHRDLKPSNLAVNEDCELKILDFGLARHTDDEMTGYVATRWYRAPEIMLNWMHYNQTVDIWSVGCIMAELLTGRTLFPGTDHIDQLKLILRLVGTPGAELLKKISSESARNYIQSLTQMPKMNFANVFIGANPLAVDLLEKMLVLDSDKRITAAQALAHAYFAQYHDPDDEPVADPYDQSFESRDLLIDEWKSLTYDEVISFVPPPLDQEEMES
Procedure: as §1
The inhibitory activities of test compounds against the p38 MAPKα isoform (MAPK14: Invitrogen), are evaluated indirectly by determining the level of activation/phosphorylation of the down-stream molecule, MAPKAP-K2. The p38 MAPKα protein (80 ng/mL, 2.5 μL) is mixed with the test compound (2.5 μL of either 4 μg/mL, 0.4 μg/mL, 0.04 μg/mL or 0.004 μg/mL) for 2 hr at RT. […] The mixture is incubated for 1 hr at RT. Development reagent (protease, 5 μL) is added for 1 hr prior to detection in a fluorescence microplate reader (Varioskan® Flash, ThermoFisher Scientific).
Method 2 This method follows the same steps as Method 1 above, but utilises a higher concentration of the p38 MAPKα protein (2.5 μL of 200 ng/mL protein instead of 2.5 μL of 80 ng/mL protein) for mixing with the test compound.
as §2

[3] = IL-8, read-out: IC50 Values for Inhibition of Cytokine Release, dU937 cells IL-8
[4] = TNFα (REC50 relative to BIRB796 per method), read-out: IC50 Values for Inhibition of Cytokine Release, dU937 cells TNFα
[5] = TNFα, read-out: IC50 Values for Inhibition of Cytokine Release, PBMCs TNFα
[6] = IL-8, read-out: IC50 Values for Inhibition of Cytokine Release, PBMCs IL-8
[7] = IL-2, read-out: IC50 Values for Inhibition of Cytokine Release, PBMCs IL-2

Row | SMILES | IC50 (d-U937 cells; [3]) [nM] | IC50 (d-U937 cells; [4]) [nM] | IC50 (GSK3α) [nM] | IC50 (Syk) [nM] | IC50 (c-Src) [nM] | IC50 (p38 MAPKα) [nM] | IC50 (PBMCs [1]; [5]) [nM] | IC50 (PBMCs [1]; [6]) [nM] | IC50 (PBMCs [2]; [7]) [nM] | IC50 (PBMCs [2]; IFNγ, read-out: IC50 Values for Inhibition of Cytokine Release, PBMCs IFNγ) [nM]
1 | COCC(=O)Nc1cc(Oc2ccc(NC(=O)Nc3cc(C(C)(C)C)nn3-c3ccc(P(C)(C)=O)cc3)c3ccccc23)ccn1 [Example 3, N-(4-((4-(3-(3-(tert-Butyl)-1-(4-(dimethylphosphoryl)phenyl)-1H-pyrazol-5-yl)ureido)-naphthalen-1-yl)oxy)pyridin-2-yl)-2-methoxyacetamide] | 8.6 | 3.6 | 16 | – | – | – | 2.5 | – | – | –
2 | C[Si](C)(C)c1cc(NC(=O)Nc2ccc(Oc3ccnc(Nc4ccccc4)n3)c3ccccc23)n(-c2cccc(CP(C)(C)=O)c2)n1 [Example 35, 1-(1-(3-((Dimethylphosphoryl)methyl)phenyl)-3-(trimethylsilyl)-1H-pyrazol-5-yl)-3-(4-((2-(phenylamino)pyrimidin-4-yl)oxy)naphthalen-1-yl)urea] | – | – | 1270 | – | – | – | – | 7.6 | 76.8 | –
3 | COc1cc(Nc2cc(Oc3ccc(NC(=O)Nc4cc(C(C)C)nn4-c4cccc(CP(C)(C)=O)c4)c4ccccc34)ccn2)cc(C(=O)NCCN2CCOCC2)c1 [Example 50, 3-((4-((4-(3-(1-(3-((Dimethylphosphoryl)methyl)phenyl)-3-isopropyl-1H-pyrazol-5-yl)-ureido)naphthalen-1-yl)oxy)pyridin-2-yl)amino)-5-methoxy-N-(2-morpholinoethyl)-benzamide] | – | – | 2090 | – | – | 24 | – | 1 | 16.1 | –
4 | CC(C)(C)c1cc(NC(=O)Nc2ccc(Oc3ccnc(Nc4cc(C(=O)NCCN5CCOCC5)cc(C(F)(F)F)c4)n3)c3ccccc23)n(-c2cccc(CP(C)(C)=O)c2)n1 [Example 58, 3-((4-((4-(3-(3-(tert-Butyl)-1-(3-((dimethylphosphoryl)methyl)phenyl)-1H-pyrazol-5-yl)-ureido)naphthalen-1-yl)oxy)pyrimidin-2-yl)amino)-N-(2-morpholinoethyl)-5-(trifluoromethyl)benzamide] | – | – | 689 | 12 | 7 | 84 | – | 1.4 | 62.1 | 4.8

The next lines start with results.

Row | IC50 (d-U937 cells; [3]) [nM] | IC50 (d-U937 cells; [4]) [nM] | IC50 (GSK3α) [nM] | IC50 (Syk) [nM] | IC50 (c-Src) [nM] | IC50 (p38 MAPKα) [nM] | SMILES | IC50 (PBMCs [1]; [5]) [nM] | IC50 (PBMCs [1]; [6]) [nM] | IC50 (PBMCs [2]; [7]) [nM] | IC50 (PBMCs [2]; IFNγ, read-out: IC50 Values for Inhibition of Cytokine Release, PBMCs IFNγ) [nM]
5 | 9.4 | 3.6 | 647 | – | – | – | CC(C)(C)c1cc(NC(=O)Nc2ccc(Oc3ccnc(Nc4ccccc4)n3)c3ccccc23)n(-c2cccc(P(C)(C)=O)c2)n1 [Example 2, 1-(3-(tert-Butyl)-1-(3-(dimethylphosphoryl)phenyl)-1H-pyrazol-5-yl)-3-(4-((2-(phenylamino)pyrimidin-4-yl)oxy)naphthalen-1-yl)urea] | 4.3 | – | – | –
6 | – | – | 3410 | 9 | 8 | 159 | CCP(=O)(CC)Cc1cccc(-n2nc(C(C)(C)C)cc2NC(=O)Nc2ccc(Oc3ccnc(Nc4cc(C)c5[nH]ncc5c4)n3)c3ccccc23)c1 [Example 36, 1-(3-(tert-Butyl)-1-(3-((diethylphosphoryl)methyl)phenyl)-1H-pyrazol-5-yl)-3-(4-((2-((7-methyl-1H-indazol-5-yl)amino)pyrimidin-4-yl)oxy)naphthalen-1-yl)urea] | – | 3.5 | – | –
7 | – | – | 4860 | 5 | 10 | 70 | Cc1cc(Nc2nccc(Oc3ccc(NC(=O)Nc4cc(C(C)C)nn4-c4cccc(CP(C)(C)=O)c4)c4ccccc34)n2)cc2cn[nH]c12 [Example 37, 1-(1-(3-((Dimethylphosphoryl)methyl)phenyl)-3-isopropyl-1H-pyrazol-5-yl)-3-(4-((2-((7-methyl-1H-indazol-5-yl)amino)pyrimidin-4-yl)oxy)naphthalen-1-yl)urea] | – | 3 | – | –
8 | – | – | 2810 | – | 8 | 58 | COc1cc(Nc2cc(Oc3ccc(NC(=O)Nc4cc(C(C)C)nn4-c4cccc(CP(C)(C)=O)c4)c4ccccc34)ccn2)cc(OCCN2CCOCC2)c1 [Example 51, 1-(1-(3-((Dimethylphosphoryl)methyl)phenyl)-3-isopropyl-1H-pyrazol-5-yl)-3-(4-((2-((3-methoxy-5-(2-morpholinoethoxy)phenyl)amino)pyridin-4-yl)oxy)naphthalen-1-yl)urea] | – | 0.5 | 6.1 | –
9 | – | – | 1190 | 4 | 3 | 18 | COCCOCCOCCOCCOc1cc(Nc2nccc(Oc3ccc(NC(=O)Nc4cc(C(C)C)nn4-c4cccc(CP(C)(C)=O)c4)c4ccccc34)n2)cc(OC)c1 [Example 52, 1-(4-((2-((3-(2,5,8,11-Tetraoxatridecan-13-yloxy)-5-methoxyphenyl)amino)pyrimidin-4-yl)oxy)naphthalen-1-yl)-3-(1-(3-((dimethylphosphoryl)methyl)phenyl)-3-isopropyl-1H-pyrazol-5-yl)urea] | – | 3.3 | 11.6 | –
10 | – | – | 1250 | 7 | 9 | 21 | CC(C)c1cc(NC(=O)Nc2ccc(Oc3ccnc(Nc4cc(C#N)cc(OCCN5CCOCC5)c4)n3)c3ccccc23)n(-c2cccc(CP(C)(C)=O)c2)n1 [Example 57, 1-(4-((2-((3-cyano-5-(2-morpholinoethoxy)phenyl)amino)pyrimidin-4-yl)oxy)-naphthalen-1-yl)-3-(1-(3-((dimethylphosphoryl)methyl)phenyl)-3-isopropyl-1H-pyrazol-5-yl)urea] | – | 2.7 | 10.5 | –
